# Molecular target: T1, mGluR5 receptor (Sus scrofa, UniProt I3LUI7)
# T1 construct: 450 μg of protein from brain homogenate with 5 nM ^3[H]-MPEP; from tissue; host or cells: pig brain halves without medulla, cerebellum and pons
# Assay: [3H]-MPEP mGluR5 receptor binding assay (pig brain homogenate)
# Conditions: 5 nM [3H]-MPEP; for inhibition at 10 µM: read-out: % Inhibition of mGluR5 Receptor (pig) [^3H]-MPEP Bond at 10 μM; for IC50: read-out: IC50 mGluR5 Receptor (pig) [^3H]-MPEP Bond
# In short: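 Compounds at 10 μM competed with 5 nM [3H]-MPEP for binding to pig brain membranes (450 μg protein) for 60 min at room temperature in pH 8.0 Hepes buffer. Bound radioactivity was collected on glass-fibre filters and read by β-counting, with 10 μM unlabelled MPEP giving non-specific binding.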
# T1 sequence (I3LUI7 19-1212): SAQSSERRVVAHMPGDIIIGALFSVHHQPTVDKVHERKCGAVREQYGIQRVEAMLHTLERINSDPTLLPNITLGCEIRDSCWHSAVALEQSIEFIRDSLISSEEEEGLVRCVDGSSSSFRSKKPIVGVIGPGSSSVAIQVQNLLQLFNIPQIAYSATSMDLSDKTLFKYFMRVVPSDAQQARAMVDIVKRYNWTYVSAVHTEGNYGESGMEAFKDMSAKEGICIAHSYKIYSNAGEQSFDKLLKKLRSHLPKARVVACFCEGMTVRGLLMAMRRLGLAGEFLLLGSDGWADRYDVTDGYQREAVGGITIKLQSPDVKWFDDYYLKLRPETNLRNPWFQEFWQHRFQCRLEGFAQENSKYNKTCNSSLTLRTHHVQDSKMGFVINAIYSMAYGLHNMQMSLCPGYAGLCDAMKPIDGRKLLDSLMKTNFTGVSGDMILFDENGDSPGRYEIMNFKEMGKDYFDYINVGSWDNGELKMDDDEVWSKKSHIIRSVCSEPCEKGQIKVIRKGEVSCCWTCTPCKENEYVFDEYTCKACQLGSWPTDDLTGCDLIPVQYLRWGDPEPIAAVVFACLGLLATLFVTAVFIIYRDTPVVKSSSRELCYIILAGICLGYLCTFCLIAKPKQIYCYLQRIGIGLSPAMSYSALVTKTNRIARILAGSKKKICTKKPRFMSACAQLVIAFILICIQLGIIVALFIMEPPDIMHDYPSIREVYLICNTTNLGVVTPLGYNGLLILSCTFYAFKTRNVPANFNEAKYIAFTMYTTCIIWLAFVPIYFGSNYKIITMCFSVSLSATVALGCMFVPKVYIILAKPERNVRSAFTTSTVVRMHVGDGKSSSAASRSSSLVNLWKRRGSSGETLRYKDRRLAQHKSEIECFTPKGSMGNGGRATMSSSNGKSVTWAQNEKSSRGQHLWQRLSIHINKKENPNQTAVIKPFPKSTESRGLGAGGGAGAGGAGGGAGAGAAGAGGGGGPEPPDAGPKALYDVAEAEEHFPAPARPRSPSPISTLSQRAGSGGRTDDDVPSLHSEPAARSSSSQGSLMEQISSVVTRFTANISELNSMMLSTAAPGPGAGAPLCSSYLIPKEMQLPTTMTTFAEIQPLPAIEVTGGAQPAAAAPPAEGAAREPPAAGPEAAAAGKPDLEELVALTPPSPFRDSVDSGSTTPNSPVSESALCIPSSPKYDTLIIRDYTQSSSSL
inhibition at 10 µM (10 μM compound) [%],Structure (SMILES),also measured
77,"O=S(=O)(c1cccs1)N(Cc1cc(-c2ccc3ncnc(NC4CC4)c3c2)ccn1)C1CC1 [Example 788, N-cyclopropyl-N-((4-(4-(cyclopropylamino)quinazolin-6-yl)pyridin-2-yl)methyl)thiophene-2-sulfonamide]",–
84,"O=C(c1ccccc1C(F)(F)F)N(Cc1cccc(-c2cc(F)c3ncnc(NC4CC4)c3c2)c1)C1CC1 [Example 789, N-cyclopropyl-N-(3-(4-(cyclopropylamino)-8-fluoroquinazolin-6-yl)benzyl)-2-(trifluoromethyl)benzamide]",–
40,"CNc1ncnc2ccc(-c3ccc(F)c(CN(C)C(=O)CN(C)C)c3)cc12 [Example 718, 2-(dimethylamino)-N-(2-fluoro-5-(4-(methylamino)quinazolin-6-yl)benzyl)-N-methylacetamide]",–
31,"Cc1cc2ncnc(NC3CC3)c2cc1-c1cccc(CN(C2CC2)S(=O)(=O)c2cccc3cccnc23)c1 [Example 683, N-cyclopropyl-N-(3-(4-(cyclopropylamino)-7-methylquinazolin-6-yl)benzyl)quinoline-8-sulfonamide]",–
51,"Cc1cc2ncnc(NC3CC3)c2cc1-c1cccc(CN(C2CC2)S(=O)(=O)Cc2ccccc2)c1 [Example 713, N-cyclopropyl-N-(3-(4-(cyclopropylamino)-7-methylquinazolin-6-yl)benzyl)-1-phenylmethane sulfonamide]",–
71,"CC(C)S(=O)(=O)N(Cc1cccc(-c2cc(F)c3ncnc(NC4CC4)c3c2)c1)C1CC1 [Example 824, N-cyclopropyl-N-(3-(4-(cyclopropylamino)-8-fluoroquinazolin-6-yl)benzyl)propane-2-sulfonamide]",–

# The next lines start with the compound.
Structure (SMILES),inhibition at 10 µM (10 μM compound) [%],also measured
"CC(C)Nc1ncnc2ccc(-c3cccc(CN(Cc4ccccc4)C(=O)c4ccccc4Cl)c3)cc12 [Example 150, N-benzyl-2-chloro-N-[3-(4-isopropylamino-quinazolin-6-yl)-benzyl]-benzamide]",40,–
"O=C(c1ccncc1)N(Cc1cc(-c2ccc3ncnc(NC4CC4)c3c2)ccc1F)C1CC1 [Example 436, N-cyclopropyl-N-(5-(4-(cyclopropylamino)quinazolin-6-yl)-2-fluorobenzyl)isonicotinamide]",98,–
"O=C(c1c(F)c(F)c(F)c(F)c1F)N(Cc1cccc(-c2ccc3ncnc(NC4CC4)c3c2)c1)C1CC1 [Example 254, N-cyclopropyl-N-[3-(4-cyclopropylamino-quinazolin-6-yl)-benzyl]-2,3,4,5,6-pentafluoro-benzamide]",–,IC50: 600 nM
"O=C(c1ccccc1)N(Cc1c(F)ccc(-c2ccc3ncnc(NC4CC4)c3c2)c1F)C1CC1 [Example 244, N-cyclopropyl-N-[3-(4-cyclopropylamino-quinazolin-6-yl)-2,6-difluoro-benzyl]-benzamide]",–,IC50: 220 nM
"CCCC(=O)N(CCC)Cc1cccc(-c2ccc3ncnc(Nc4ccccc4)c3c2)c1 [Example 115, N-[3-(4-phenylamino-quinazolin-6-yl)-benzyl]-N-propyl-butyramide]",50,–
"O=C1CCC(=O)N1Cc1cccc(-c2cc(C(F)(F)F)c3ncnc(NC4CC4)c3c2)c1 [Example 883, 1-(3-(4-(cyclopropylamino)-8-(trifluoromethyl)quinazolin-6-yl)benzyl)pyrrolidine-2,5-dione]",–,IC50: 20 nM
"COc1ccc(C(=O)N(Cc2cc(-c3ccc4nc(C)nc(NC5CC5)c4c3)ccc2F)C2CC2)cc1OC [Example 558, N-cyclopropyl-N-(5-(4-(cyclopropylamino)-2-methylquinazolin-6-yl)-2-fluorobenzyl)-3,4-dimethoxybenzamide]",42,–
"COc1ccc(S(=O)(=O)N(Cc2cccc(-c3cc4c(NC5CC5)ncnc4cc3C)c2)C2CC2)cc1 [Example 659, N-cyclopropyl-N-(3-(4-(cyclopropylamino)-7-methylquinazolin-6-yl)benzyl)-4-methoxybenzole sulfonamide]",–,% Inhibition of mGluR5 Receptor (pig) [^3H]-MPEP Bond at 10 μM (10 μM compound): 86%

# Reference: patent publication US20090069320A1, “Substituted 4-Amino-Quinazoline Compounds with Metabotropic Glutamate Receptor Regulating Activity and Uses Thereof” (Gruenenthal GmbH, priority 2006, published 2009)
